The numbers were not newly measured in PMC3517478 (BMC Neurology, 2012), which cites them from elsewhere.

In data set [1] the test system is startle mutations of the glycine receptor. Conditions: propofol 1–500 μM; Xenopus laevis oocytes; cited from earlier work.
The subject of data set [2] is transgenic mice (tg271Q-300). Conditions: 15 mg/kg i.p.; cited from earlier work.

As to `CC(C)c1cccc(C(C)C)c1O` [propofol], the “effect on glycine induced maximal response” value in data set [1] was “increases the glycine induced maximal response”. The “effect on startle symptoms (righting time, tremor)” value in data set [2] was “decreased righting time and abatements in tremor without sedative side effects”.
